Laboratory results from patent publication US12479847B2 (DANA-FARBER CANCER INSTITUTE, INC., priority 2019, dated 2025).

Legend:
Experiment in all cases: KINOMEscan (ScanMAX) kinase profiling
Format in all cases: binding
panel of 468 kinases [1] = target: T1, panel of 468 kinases (Homo sapiens, UniProt O95819); conditions: MAP4K4; 1 μM; read-out: % control
T1 construct: purchased KINOMEscan (ScanMAX) service

panel of 468 kinases [2] = target: T2, panel of 468 kinases (Homo sapiens, UniProt Q86UE8); conditions: TLK2; 1 μM; read-out: % control
T2 construct: purchased KINOMEscan (ScanMAX) service

panel of 468 kinases [3] = target: T3, panel of 468 kinases (Homo sapiens, UniProt P04049); conditions: RAF1; 1 μM; read-out: % control
T3 construct: purchased KINOMEscan (ScanMAX) service

panel of 468 kinases [4] = target: T4, panel of 468 kinases (Homo sapiens, UniProt Q9UM73); conditions: ALK; 1 μM; read-out: % control
T4 construct: purchased KINOMEscan (ScanMAX) service

panel of 468 kinases [5] = target: T5, panel of 468 kinases (Homo sapiens, UniProt Q13464); conditions: ROCK1; 1 μM; read-out: % control
T5 construct: purchased KINOMEscan (ScanMAX) service

panel of 468 kinases [6] = target: T6, panel of 468 kinases (Homo sapiens, UniProt Q9H093); conditions: SNARK; 1 μM; read-out: % control
T6 construct: purchased KINOMEscan (ScanMAX) service
T6 sequence (Q9H093 1-628): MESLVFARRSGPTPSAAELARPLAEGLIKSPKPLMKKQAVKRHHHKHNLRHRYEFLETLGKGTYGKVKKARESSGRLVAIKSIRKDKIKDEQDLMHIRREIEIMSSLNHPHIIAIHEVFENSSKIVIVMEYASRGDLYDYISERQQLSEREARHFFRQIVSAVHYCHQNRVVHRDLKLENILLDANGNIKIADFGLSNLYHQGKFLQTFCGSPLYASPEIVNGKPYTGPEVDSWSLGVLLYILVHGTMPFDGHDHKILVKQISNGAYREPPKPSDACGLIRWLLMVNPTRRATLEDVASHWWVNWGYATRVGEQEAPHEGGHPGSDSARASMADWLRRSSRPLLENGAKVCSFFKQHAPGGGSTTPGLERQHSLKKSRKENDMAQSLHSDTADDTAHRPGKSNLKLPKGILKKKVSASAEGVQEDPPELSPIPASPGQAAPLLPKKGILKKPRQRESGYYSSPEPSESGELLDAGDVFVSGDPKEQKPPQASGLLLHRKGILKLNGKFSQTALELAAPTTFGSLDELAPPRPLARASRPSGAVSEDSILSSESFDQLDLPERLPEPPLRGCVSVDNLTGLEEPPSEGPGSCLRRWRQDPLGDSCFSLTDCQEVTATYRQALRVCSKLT

panel of 468 kinases [7] = target: T7, panel of 468 kinases (Homo sapiens, UniProt Q8NE63); conditions: HIPK4; 1 μM; read-out: % control
T7 construct: purchased KINOMEscan (ScanMAX) service
T7 sequence (Q8NE63 1-616): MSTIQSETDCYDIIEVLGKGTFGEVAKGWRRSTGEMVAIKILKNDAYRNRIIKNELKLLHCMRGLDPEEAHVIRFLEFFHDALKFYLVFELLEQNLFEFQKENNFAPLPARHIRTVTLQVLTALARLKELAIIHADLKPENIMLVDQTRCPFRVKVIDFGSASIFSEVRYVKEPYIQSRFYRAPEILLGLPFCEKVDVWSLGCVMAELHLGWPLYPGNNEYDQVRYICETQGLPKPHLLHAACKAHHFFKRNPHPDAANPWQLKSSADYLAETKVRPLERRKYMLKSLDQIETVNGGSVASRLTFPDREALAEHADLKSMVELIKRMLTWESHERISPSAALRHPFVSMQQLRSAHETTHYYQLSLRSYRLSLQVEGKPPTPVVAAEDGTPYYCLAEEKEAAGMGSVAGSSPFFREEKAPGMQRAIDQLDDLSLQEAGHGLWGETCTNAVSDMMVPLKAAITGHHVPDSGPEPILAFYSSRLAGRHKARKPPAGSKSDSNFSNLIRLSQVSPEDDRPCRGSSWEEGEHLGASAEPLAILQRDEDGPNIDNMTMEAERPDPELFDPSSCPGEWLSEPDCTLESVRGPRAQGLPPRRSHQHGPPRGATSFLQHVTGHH

panel of 468 kinases [8] = target: T8, panel of 468 kinases (Homo sapiens, UniProt Q9BYT3); conditions: STK33; 1 μM; read-out: % control
T8 construct: purchased KINOMEscan (ScanMAX) service

panel of 468 kinases [9] = target: T9, panel of 468 kinases (Homo sapiens, UniProt Q8TD08); conditions: ERK8; 1 μM; read-out: % control
T9 construct: purchased KINOMEscan (ScanMAX) service
T9 sequence (Q8TD08 1-544): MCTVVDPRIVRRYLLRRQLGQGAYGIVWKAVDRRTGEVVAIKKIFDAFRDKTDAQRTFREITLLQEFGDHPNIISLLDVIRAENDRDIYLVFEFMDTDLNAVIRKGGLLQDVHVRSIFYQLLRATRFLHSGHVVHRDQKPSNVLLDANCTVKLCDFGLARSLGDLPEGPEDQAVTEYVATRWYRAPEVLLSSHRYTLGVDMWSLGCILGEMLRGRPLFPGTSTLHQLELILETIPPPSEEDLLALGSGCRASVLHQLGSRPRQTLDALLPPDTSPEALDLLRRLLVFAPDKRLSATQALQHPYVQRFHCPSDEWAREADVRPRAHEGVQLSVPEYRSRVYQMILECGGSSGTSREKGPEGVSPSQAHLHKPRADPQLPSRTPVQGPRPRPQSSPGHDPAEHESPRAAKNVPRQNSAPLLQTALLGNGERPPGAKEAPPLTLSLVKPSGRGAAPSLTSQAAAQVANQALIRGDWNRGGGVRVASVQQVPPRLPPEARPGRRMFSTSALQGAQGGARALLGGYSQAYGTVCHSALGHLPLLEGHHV

panel of 468 kinases [10] = target: T10, panel of 468 kinases (Homo sapiens, UniProt O60331); conditions: PIP5K1C; 1 μM; read-out: % control
T10 construct: purchased KINOMEscan (ScanMAX) service

T4 sequence (Q9UM73 19-1620): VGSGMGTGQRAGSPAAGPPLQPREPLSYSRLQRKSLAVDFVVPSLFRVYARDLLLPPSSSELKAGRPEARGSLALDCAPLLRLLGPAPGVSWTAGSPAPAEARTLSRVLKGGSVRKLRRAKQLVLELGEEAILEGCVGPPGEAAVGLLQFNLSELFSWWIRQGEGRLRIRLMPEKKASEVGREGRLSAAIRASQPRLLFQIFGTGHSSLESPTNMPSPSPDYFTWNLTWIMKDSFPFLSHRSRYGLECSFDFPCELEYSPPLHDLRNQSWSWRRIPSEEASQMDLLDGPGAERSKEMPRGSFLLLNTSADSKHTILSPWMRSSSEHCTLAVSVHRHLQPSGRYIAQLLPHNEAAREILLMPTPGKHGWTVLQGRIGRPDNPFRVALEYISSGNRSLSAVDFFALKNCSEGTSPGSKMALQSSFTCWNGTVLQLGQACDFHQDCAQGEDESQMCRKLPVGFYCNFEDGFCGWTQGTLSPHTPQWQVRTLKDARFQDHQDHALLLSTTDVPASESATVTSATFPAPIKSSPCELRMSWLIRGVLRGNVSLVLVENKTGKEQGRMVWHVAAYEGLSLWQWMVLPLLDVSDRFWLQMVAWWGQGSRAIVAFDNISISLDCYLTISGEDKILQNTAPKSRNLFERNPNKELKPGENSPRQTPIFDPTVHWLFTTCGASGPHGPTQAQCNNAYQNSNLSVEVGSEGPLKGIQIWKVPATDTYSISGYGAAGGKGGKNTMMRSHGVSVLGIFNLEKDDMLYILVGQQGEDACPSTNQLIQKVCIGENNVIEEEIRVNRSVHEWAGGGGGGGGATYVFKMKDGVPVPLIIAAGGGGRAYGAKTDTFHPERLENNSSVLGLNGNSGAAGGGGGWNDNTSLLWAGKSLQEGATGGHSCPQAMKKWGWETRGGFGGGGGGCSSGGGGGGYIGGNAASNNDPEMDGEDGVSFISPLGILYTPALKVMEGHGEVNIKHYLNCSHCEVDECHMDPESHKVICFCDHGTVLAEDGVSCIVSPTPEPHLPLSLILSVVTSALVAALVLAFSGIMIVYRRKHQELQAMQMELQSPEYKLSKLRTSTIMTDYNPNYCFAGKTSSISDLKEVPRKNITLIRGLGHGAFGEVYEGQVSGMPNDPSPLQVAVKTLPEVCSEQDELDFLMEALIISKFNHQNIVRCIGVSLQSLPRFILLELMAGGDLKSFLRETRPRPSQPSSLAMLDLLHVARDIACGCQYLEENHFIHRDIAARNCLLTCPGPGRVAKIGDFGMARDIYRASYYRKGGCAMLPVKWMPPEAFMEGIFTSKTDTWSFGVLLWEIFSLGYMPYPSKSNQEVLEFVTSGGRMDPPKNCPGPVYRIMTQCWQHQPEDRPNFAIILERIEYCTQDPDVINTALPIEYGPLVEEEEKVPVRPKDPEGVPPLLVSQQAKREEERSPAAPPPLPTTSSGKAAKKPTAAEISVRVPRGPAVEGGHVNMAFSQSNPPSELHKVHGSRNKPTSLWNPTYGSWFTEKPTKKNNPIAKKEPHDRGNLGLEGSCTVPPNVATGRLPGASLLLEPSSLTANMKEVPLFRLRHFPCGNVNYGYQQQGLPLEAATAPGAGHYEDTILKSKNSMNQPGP
T5 sequence (Q13464 whole entry): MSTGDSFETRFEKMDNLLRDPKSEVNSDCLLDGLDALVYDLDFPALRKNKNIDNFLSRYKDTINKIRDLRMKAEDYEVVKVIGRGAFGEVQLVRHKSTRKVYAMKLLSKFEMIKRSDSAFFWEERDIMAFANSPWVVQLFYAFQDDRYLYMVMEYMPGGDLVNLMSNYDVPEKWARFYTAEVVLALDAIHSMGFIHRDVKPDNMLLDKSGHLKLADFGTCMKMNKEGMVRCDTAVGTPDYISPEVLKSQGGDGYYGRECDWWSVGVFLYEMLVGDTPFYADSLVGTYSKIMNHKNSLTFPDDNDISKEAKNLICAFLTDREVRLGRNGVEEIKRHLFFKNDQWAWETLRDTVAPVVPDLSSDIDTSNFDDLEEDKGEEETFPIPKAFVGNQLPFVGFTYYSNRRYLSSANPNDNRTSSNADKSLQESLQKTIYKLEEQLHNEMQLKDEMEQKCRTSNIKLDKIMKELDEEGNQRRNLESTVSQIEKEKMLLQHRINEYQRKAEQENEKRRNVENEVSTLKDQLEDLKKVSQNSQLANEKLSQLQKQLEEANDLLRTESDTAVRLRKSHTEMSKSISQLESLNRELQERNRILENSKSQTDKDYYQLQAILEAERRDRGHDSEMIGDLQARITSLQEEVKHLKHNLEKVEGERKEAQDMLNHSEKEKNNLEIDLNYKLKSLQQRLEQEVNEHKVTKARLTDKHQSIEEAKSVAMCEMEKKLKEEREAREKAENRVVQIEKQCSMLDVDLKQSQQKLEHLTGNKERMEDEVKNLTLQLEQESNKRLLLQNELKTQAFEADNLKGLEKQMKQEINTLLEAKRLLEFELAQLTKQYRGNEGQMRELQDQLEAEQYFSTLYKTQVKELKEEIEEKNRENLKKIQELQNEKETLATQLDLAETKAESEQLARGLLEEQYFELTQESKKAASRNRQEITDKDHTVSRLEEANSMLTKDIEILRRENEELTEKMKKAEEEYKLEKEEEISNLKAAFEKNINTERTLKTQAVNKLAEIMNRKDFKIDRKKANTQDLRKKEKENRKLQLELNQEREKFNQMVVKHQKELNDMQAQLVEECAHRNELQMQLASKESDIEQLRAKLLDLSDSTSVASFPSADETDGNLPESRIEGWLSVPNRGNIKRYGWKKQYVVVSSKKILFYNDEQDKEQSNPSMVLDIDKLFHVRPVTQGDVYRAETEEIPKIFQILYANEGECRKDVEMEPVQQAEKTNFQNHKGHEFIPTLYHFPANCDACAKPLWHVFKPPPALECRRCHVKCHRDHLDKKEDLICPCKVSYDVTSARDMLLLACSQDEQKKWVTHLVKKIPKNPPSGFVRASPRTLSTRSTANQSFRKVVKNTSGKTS
T8 sequence (Q9BYT3 whole entry): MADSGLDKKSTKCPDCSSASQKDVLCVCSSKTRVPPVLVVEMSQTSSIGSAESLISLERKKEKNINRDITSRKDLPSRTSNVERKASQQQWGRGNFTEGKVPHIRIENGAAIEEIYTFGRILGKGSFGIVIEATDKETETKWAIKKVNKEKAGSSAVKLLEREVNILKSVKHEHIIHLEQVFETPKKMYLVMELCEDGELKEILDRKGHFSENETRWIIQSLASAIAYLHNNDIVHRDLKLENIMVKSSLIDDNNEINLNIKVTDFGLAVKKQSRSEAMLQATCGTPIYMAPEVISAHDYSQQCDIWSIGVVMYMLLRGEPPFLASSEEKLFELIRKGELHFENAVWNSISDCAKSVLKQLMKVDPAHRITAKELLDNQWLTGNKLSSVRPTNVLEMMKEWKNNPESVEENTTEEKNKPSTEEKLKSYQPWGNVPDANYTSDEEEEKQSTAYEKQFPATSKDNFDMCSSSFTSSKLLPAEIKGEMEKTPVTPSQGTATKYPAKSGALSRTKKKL
T3 sequence (P04049 whole entry): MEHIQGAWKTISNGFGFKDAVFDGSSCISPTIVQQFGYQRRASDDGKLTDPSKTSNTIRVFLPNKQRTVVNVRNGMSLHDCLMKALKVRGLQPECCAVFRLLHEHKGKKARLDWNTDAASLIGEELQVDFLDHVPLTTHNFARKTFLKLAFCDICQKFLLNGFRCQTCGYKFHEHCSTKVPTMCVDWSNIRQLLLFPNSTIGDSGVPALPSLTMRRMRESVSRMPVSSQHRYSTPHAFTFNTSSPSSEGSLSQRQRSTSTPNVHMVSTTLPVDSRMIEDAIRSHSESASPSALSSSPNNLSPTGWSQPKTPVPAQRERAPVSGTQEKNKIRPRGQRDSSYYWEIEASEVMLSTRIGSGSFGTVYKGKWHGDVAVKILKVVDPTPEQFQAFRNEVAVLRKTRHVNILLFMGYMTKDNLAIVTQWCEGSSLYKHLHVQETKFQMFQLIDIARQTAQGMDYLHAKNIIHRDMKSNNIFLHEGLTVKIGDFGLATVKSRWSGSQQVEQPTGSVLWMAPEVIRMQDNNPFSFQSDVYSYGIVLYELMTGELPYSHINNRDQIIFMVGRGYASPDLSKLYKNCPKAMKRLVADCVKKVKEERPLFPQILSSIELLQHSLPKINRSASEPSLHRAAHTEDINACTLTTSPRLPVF
T2 sequence (Q86UE8 whole entry): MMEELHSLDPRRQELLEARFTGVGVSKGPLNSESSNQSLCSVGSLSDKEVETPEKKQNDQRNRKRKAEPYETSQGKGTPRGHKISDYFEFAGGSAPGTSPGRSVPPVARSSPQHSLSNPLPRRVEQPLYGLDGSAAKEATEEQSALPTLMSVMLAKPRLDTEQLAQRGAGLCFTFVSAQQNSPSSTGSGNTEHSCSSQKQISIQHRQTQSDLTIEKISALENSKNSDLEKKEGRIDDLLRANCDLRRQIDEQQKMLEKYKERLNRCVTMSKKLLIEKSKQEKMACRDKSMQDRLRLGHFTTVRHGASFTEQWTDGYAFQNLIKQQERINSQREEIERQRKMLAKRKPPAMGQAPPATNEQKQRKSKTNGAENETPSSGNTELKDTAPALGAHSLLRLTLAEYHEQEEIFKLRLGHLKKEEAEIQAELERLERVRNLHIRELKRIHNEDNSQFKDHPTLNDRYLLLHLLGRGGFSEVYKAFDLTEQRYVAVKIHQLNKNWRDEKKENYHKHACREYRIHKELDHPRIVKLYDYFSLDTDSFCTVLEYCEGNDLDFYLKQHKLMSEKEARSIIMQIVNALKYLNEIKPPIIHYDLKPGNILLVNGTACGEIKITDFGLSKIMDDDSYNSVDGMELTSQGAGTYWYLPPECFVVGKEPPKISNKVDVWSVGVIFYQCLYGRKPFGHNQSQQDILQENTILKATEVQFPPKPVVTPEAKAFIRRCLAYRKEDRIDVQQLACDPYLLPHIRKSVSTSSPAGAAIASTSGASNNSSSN

| Compound | remaining binding at 1 µM (panel of 468 kinases [1]) | remaining binding at 1 µM (panel of 468 kinases [2]) | remaining binding at 1 µM (panel of 468 kinases [3]) | remaining binding at 1 µM (panel of 468 kinases [4]) | remaining binding at 1 µM (panel of 468 kinases [5]) | remaining binding at 1 µM (panel of 468 kinases [6]) | remaining binding at 1 µM (panel of 468 kinases [7]) | remaining binding at 1 µM (panel of 468 kinases [8]) | remaining binding at 1 µM (panel of 468 kinases [9]) | remaining binding at 1 µM (panel of 468 kinases [10]) |
| --- | --- | --- | --- | --- | --- | --- | --- | --- | --- | --- |
| CNc1nc(Nc2ccc(C(=O)N3CCC(N4CCOCC4)CC3)c3c2OCO3)nc2[nH]cc(Cl)c12 [Compound 75, (7-((5-chloro-4-(methylamino)-7H-pyrrolo[2,3-d]pyrimidin-2-yl)amino)benzo[d][1,3]dioxol-4-yl)(4-morpholinopiperidin-1-yl)methanone] | 54% | 100% | 100% | 1.9% | 35% | 19% | 97% | 7.2% | 100% | 55% |
| CNc1nc(Nc2ccc(S(=O)(=O)N3CCC(N4CCOCC4)CC3)cc2OC)nc2[nH]cc(Cl)c12 [Compound 12, 5-chloro-N2-(2-methoxy-4-((4-morpholinopiperidin-1-yl)sulfonyl)phenyl)-N4-methyl-7H-pyrrolo[2,3-d]pyrimidine-2,4-diamine] | 95% | 100% | 100% | 3.4% | 100% | 75% | 100% | 10% | 100% | 57% |
| CNc1nc(Nc2ccc(P3(=O)CCN(C4CCOCC4)CC3)cc2OC)nc2[nH]cc(Cl)c12 [Compound 77, 4-(4-((5-chloro-4-(methylamino)-7H-pyrrolo[2,3-d]pyrimidin-2-yl)amino)-3-methoxyphenyl)-1-(tetrahydro-2H-pyran-4-yl)-1,4-azaphosphinane 4-oxide] | 100% | 100% | 100% | 2% | 95% | 70% | 99% | 6.9% | 100% | 70% |
